Source: US10781208B2, “5,6-dihydro-11H-indolo[2,3-B]quinolin-11-ones as alk inhibitors” (THE REGENTS OF THE UNIVERSITY OF MICHIGAN, priority 2016, dated 2020)

Experiments:
[1] = target: T1, wild-type human ALK (Homo sapiens, UniProt Q9UM73); assay: ALK kinase activity, Lance TR-FRET assay (wild-type); format: biochemical; conditions: Table 2, ALK enzyme; read-out: Inhibitory activity (nM) ALK
T1 construct: The cytoplasmic domain (amino acid 1058-1620) of wild-type human ALK protein; GST (N); purchased Carna Biosciences, Inc (Japan)
T1 sequence (Q9UM73 1058-1620): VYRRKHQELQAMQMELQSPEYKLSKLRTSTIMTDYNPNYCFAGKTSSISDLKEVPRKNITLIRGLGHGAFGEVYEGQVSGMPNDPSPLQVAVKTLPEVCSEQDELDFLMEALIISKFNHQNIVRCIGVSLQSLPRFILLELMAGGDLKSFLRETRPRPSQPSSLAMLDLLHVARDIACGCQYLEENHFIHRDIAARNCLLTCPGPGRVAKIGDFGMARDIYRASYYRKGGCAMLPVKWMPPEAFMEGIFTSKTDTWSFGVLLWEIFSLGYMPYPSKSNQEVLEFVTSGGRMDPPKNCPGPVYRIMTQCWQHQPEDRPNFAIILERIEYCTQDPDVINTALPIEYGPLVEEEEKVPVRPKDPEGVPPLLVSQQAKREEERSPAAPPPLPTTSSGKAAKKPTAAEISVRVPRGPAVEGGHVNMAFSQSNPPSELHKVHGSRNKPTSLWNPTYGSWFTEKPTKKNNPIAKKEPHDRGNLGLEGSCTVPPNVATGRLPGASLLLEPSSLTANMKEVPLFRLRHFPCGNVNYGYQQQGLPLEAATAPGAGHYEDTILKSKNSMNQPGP
Protocol: Mutated ALK proteins were expressed in SF9 insect cells with N-terminal tags cleaved after purification. Kinase activities of all enzymes were assessed using a Lance TR-FRET assay kit from Perkin Elmer Life Sciences (Waltham, Mass.). 2.5 μL of compound solution and 5 μL of protein solution were added into a black low volume 384 well microtiter plate which was incubated for 30 minutes with gentle shaking at room temperature, followed by adding 2.5 μL of fluorescently labeled peptide substrate and ATP mixture solution. The kinase reaction was performed in 50 mM HEPES (pH 7.5) with 1 mM EGTA, 1 mM MgCl2, and 2 mM DTT, 0.01% Tween-20 added right before the assay. […] The final mixture was incubated in the dark for 1 hour before the plate was read on a Tecan Infinite M-1000 multi-mode plate reader (Tecan, Durham N.C.) with an excitation wavelength of 320 nm.

[2] = test system: Kappas-299 (NPM-ALK); assay: Cell growth inhibition assay (WST-8), Kappas-299; format: cell-based; conditions: read-out: Kappas-299 (nM) (NPM-ALK), 50% of cell growth inhibition (IC50), Kappas-299 cells, WST-8, versus DMSO control
Protocol: (§1) All cell lines were cultured as recommended. For cell growth inhibition assay, cells were treated with different concentrations of the tested compounds, diluted from stock to culture media containing a 0.2% DMSO as the final concentration. Cell viability was determined using the WST-8 cell proliferation assay kit (Dojindo Molecular Technologies) according to manufacture's instructions. Three independent experiments in triplicates were performed.

[3] = test system: H3122 (EML4-ALK); assay: Cell growth inhibition assay (WST-8), H3122; format: cell-based; conditions: Homo sapiens, NCI-H3122, read-out: H3122 (nM) (EML4-ALK), 50% of cell growth inhibition (IC50); H3122 cells, WST-8, versus DMSO control
Protocol: as §1

[4] = test system: KARPAS 299 xenograft; assay: KARPAS 299 xenograft model in mice, in vivo antitumor efficacy; conditions: SCID mice, given orally, once daily for 3 weeks, FIG. 1
Protocol: Tumor cells for xenografts were washed twice in PBS, and re-suspended in an ice cold mixture of 1:1 PBS and Matrigel (BD Biosciences, Invitrogen Corp.) for a final Matrigel protein concentration of 5 mg/ml. Cells at 5×10^6 cells in 0.1 ml were injected subcutaneously (s.c.) into the flank region of each mouse.
The size of tumors growing in the mice was measured in two dimensions using calipers. Tumor volume (mm^3)=(A×B^2)/2 where A and B are the tumor length and width (in mm), respectively. During treatment, tumor volume and body weight were measured three times a week. After the treatment was stopped, tumor volume and body weight was measured at least once a week.
Tumors were not allowed to exceed 10% of the animal's total body weight. If an animal had two or more tumors the total weight of all tumors were not allowed to exceed 10% of the animal's total body weight. At the end of the experimental period or when tumor size approached 10% of the total body weight, the animal was euthanized.
Mice with tumors within acceptable size range were randomized into treatment groups of 7 mice. Drug was given orally, once daily for 3 weeks. The Control group received vehicle alone.

| IC50 [1] | IC50 [3] | Compound | IC50 [2] | tumor growth in the KARPAS 299 xenograft model [4] |
| --- | --- | --- | --- | --- |
| 0.5 nM | 18 nM | COc1cc2c(=O)c3c4ccc(C#N)cc4[nH]c3n(C(C)C)c2c(F)c1C1=C[C@@H](C)N[C@@H](C)C1 [Cpd. No. 18, 3-((2S,6R)-2,6-dimethyl-1,2,3,6-tetrahydropyridin-4-yl)-4-fluoro-5-isopropyl-2-methoxy-11-oxo-6,11-dihydro-5H-indolo[2,3-b]quinoline-8-carbonitrile] | 16 nM |  |
| 0.24 nM |  | COc1cc2c(=O)c3c4ccc(C#N)cc4[nH]c3n(C(C)C)c2c(F)c1C1=CC(C)(C)N(C)C(C)(C)C1 [Cpd. No. 12, 4-fluoro-5-isopropyl-2-methoxy-11-oxo-3-(1,2,2,6,6-pentamethyl-1,2,3,6-tetrahydropyridin-4-yl)-6,11-dihydro-5H-indolo[2,3-b]quinoline-8-carbonitrile] | 9.7 nM | inhibit tumor growth |
| 1.4 nM | 30 nM | COc1cc2c(=O)c3c4ccc(C#N)cc4[nH]c3n(C(C)C)c2c(F)c1C1=CCN(C2CCOCC2)CC1 [Cpd. No. 20, 4-fluoro-5-isopropyl-2-methoxy-11-oxo-3-(1-(tetrahydro-2H-pyran-4-yl)-1,2,3,6-tetrahydropyridin-4-yl)-6,11-dihydro-5H-indolo[2,3-b]quinoline-8-carbonitrile] | 38 nM | inhibit tumor growth |
| 0.36 nM | 20 nM | COc1cc2c(=O)c3c4ccc(C#N)cc4[nH]c3n(C(C)C)c2c(F)c1C1=C[C@@H](C)N(C)[C@@H](C)C1 [Cpd. No. 19, 4-fluoro-5-isopropyl-2-methoxy-11-oxo-3-((2S,6R)-1,2,6-trimethyl-1,2,3,6-tetrahydropyridin-4-yl)-6,11-dihydro-5H-indolo[2,3-b]quinoline-8-carbonitrile] | 16 nM | inhibit tumor growth |
|  | 27 nM | CCN1[C@H](C)CN(c2c(OC)cc3c(=O)c4c5ccc(C#N)cc5[nH]c4n(C(C)C)c3c2F)C[C@@H]1C [Cpd. No. 9, 3-((3R,5S)-4-ethyl-3,5-dimethylpiperazin-1-yl)-4-fluoro-5-isopropyl-2-methoxy-11-oxo-6,11-dihydro-5H-indolo[2,3-b]quinoline-8-carbonitrile] | 85 nM |  |

Further lines, the compound ahead of its results:

| Compound | IC50 [1] | IC50 [3] | IC50 [2] | tumor growth in the KARPAS 299 xenograft model [4] |
| --- | --- | --- | --- | --- |
| COc1cc2c(=O)c3c4ccc(C#N)cc4[nH]c3n(C(C)C)c2c(F)c1C1CC2CCC(C1)N2C (stereo not shown) [Cpd. No. 10, 4-fluoro-5-isopropyl-2-methoxy-3-(8-methyl-8-azabicyclo[3.2.1]octan-3-yl)-11-oxo-6,11-dihydro-5H-indolo[2,3-b]quinoline-8-carbonitrile] | 0.37 nM |  | 69 nM |  |
| COc1cc2c(=O)c3c4ccc(C#N)cc4[nH]c3n(C(C)C)c2c(F)c1C1=CCNCC1 [Cpd. No. 16, 4-fluoro-5-isopropyl-2-methoxy-11-oxo-3-(1,2,3,6-tetrahydropyridin-4-yl)-6,11-dihydro-5H-indolo[2,3-b]quinoline-8-carbonitrile] | 0.85 nM |  | 167 nM |  |
| COc1cc2c(=O)c3c4ccc(C#N)cc4[nH]c3n(C(C)C)c2c(F)c1C1=CCN(C)CC1 [Cpd. No. 17, 4-fluoro-5-isopropyl-2-methoxy-3-(1-methyl-1,2,3,6-tetrahydropyridin-4-yl)-11-oxo-6,11-dihydro-5H-indolo[2,3-b]quinoline-8-carbonitrile] | 0.75 nM |  | 60 nM |  |
